Data as given in US20040116293A1, “Enhanced herbicide composition” (priority 2002, published 2004).

Legend:
velvetleaf = assay: Herbicidal activity (phytotoxicity, percent leaf area affected) of foliar sprays on velvetleaf; format: in vivo, Abutilon theophrasti (velvetleaf); conditions: for Phytotoxicity at 3 days: percent leaf area affected / Phytotoxicity at 5 days: percent leaf area affected / Phytotoxicity at 7 days: percent leaf area affected: alone or + NaSA 800 ppm
Excerpt: (§1) In all examples, deionized ultra-pure water was used in preparing solutions. Spray solutions were used as soon as possible after mixing.
(§2) In all herbicide applications, plants were sprayed with a sufficient volume to insure good coverage, to the point of runoff of the spray solution. […] For all treatments containing both an herbicide and a salicylate or SAR inducer, these materials were mixed and applied in a single spray solution (commonly known as a tank mix). After spraying, plants were moved to the greenhouse and arranged in randomized complete blocks. Plants were evaluated for herbicidal effects (phytotoxicity) after spraying by assessing damage according to percent leaf area affected. All the data were subject to an analysis of variance, and the mean separations were determined with Duncan's multiple range test at α=0.05.

Xanthi-nc tobacco [1] = assay: Herbicidal activity on Xanthi-nc tobacco at three different light levels; format: in vivo, Nicotiana tabacum (tobacco); conditions: for Phytotoxicity at 5 days: percent leaf area affected / Phytotoxicity at 9 days: percent leaf area affected / Phytotoxicity at 13 days: percent leaf area affected: atrazine (Aatrex Nine-O) 250 ppm, NaSA 800 ppm
Excerpt: as §1, §2

Xanthi-nc tobacco [2] = assay: Herbicidal activity (phytotoxicity, percent leaf area affected) of foliar sprays on Xanthi-nc tobacco; format: in vivo, Nicotiana tabacum (tobacco)
Excerpt: as §1, §2

[3] = test system: corn variety Silver Queen; assay: Foliar sprays on corn variety Silver Queen (crop damage)
Excerpt: as §1, §2
Atrazine is commonly used against weeds in corn and small grain crops.

Xanthi-nc tobacco [4] = assay: Herbicidal activity on Xanthi-nc tobacco at three different temperatures; format: in vivo, Nicotiana tabacum (tobacco); conditions: for Phytotoxicity at 3 days: percent leaf area affected / Phytotoxicity at 5 days: percent leaf area affected / Phytotoxicity at 7 days: percent leaf area affected / Phytotoxicity at 10 days: percent leaf area affected: atrazine (Aatrex Nine-O) 250 ppm, NaSA 800 ppm
Excerpt: as §1, §2

[5] = atrazine (Aatrex Nine-O) 50 ppm
[6] = atrazine (Aatrex Nine-O) 100 ppm
[7] = atrazine (Aatrex Nine-O) 250 ppm
[8] = illumination 9.8 μmoles·m^−2·s^−1
[9] = illumination 31.3 μmoles·m^−2·s^−1
[10] = atrazine 100 ppm, alone or + NaSA 1600 ppm
[11] = atrazine 250 ppm, alone or + NaSA 1600 ppm
[12] = atrazine 500 ppm, alone or + NaSA 1600 ppm

In the case of `CCNc1nc(Cl)nc(NC(C)C)n1` [Atrazine, 6-chloro-N-ethyl-N′(1-methylethyl)-1,3,5-triazine-2,4-diamine], the “Phytotoxicity at 3 days: percent leaf area affected” value (velvetleaf; [5]) is reported as 17.5 B percent, the “Phytotoxicity at 5 days: percent leaf area affected” value (velvetleaf; [5]) is reported as 20 B percent and the “Phytotoxicity at 7 days: percent leaf area affected” value (velvetleaf; [5]) is reported as 25 B percent. The “Phytotoxicity at 3 days: percent leaf area affected” value (velvetleaf; [6]) was 35 C percent, the “Phytotoxicity at 5 days: percent leaf area affected” value (velvetleaf; [6]) was 50 D percent and the “Phytotoxicity at 7 days: percent leaf area affected” value (velvetleaf; [6]) was 45 C percent. The “Phytotoxicity at 3 days: percent leaf area affected” value (velvetleaf; [7]) was 80 E percent, the “Phytotoxicity at 5 days: percent leaf area affected” value (velvetleaf; [7]) was 97.5 EF percent and the “Phytotoxicity at 7 days: percent leaf area affected” value (velvetleaf; [7]) was 95 D percent. The “Phytotoxicity at 5 days: percent leaf area affected” value (Xanthi-nc tobacco [1]; illumination 0 (Dark)) was 0.6 AB percent, the “Phytotoxicity at 5 days: percent leaf area affected” value (Xanthi-nc tobacco [1]; [8]) was 0 A percent and the “Phytotoxicity at 5 days: percent leaf area affected” value (Xanthi-nc tobacco [1]; [9]) was 1.9 AB percent. For the same molecule, the “Phytotoxicity at 9 days: percent leaf area affected” value (Xanthi-nc tobacco [1]; illumination 0 (Dark)) was 0.6 A percent, the “Phytotoxicity at 9 days: percent leaf area affected” value (Xanthi-nc tobacco [1]; [8]) was 5.3 AB percent and the “Phytotoxicity at 9 days: percent leaf area affected” value (Xanthi-nc tobacco [1]; [9]) was 67.2 B percent. For the same molecule, the “Phytotoxicity at 13 days: percent leaf area affected” value (Xanthi-nc tobacco [1]; illumination 0 (Dark), crop oil control 35.9) was 28.1 A percent, the “Phytotoxicity at 13 days: percent leaf area affected” value (Xanthi-nc tobacco [1]; [8]) was 76.5 B percent and the “Phytotoxicity at 13 days: percent leaf area affected” value (Xanthi-nc tobacco [1]; [9]) was 100%. For the same molecule, the “Phytotoxicity at 2 days: percent leaf area affected” value (Xanthi-nc tobacco [2]; 2 days, atrazine (Aatrex Nine-O) 100 ppm, NaSA 800 ppm, acibenzolar-S-methyl 187 ppm, alone or tank-mixed as labelled) was 1 A percent, the “Phytotoxicity at 3 days: percent leaf area affected” value (Xanthi-nc tobacco [2]; atrazine (Aatrex Nine-O) 100 ppm, NaSA 800 ppm, acibenzolar-S-methyl 187 ppm, alone or tank-mixed as labelled) was 17 B percent and the “Phytotoxicity at 7 days: percent leaf area affected” value (Xanthi-nc tobacco [2]; 7 days, atrazine (Aatrex Nine-O) 100 ppm, NaSA 800 ppm, acibenzolar-S-methyl 187 ppm, alone or tank-mixed as labelled) was 93.9 B percent. The “Phytotoxicity at 3 days: percent leaf area affected” value (Xanthi-nc tobacco [2]; [10]) was 1.5 A percent, the “Phytotoxicity at 6 days: percent leaf area affected” value (Xanthi-nc tobacco [2]; [10]) was 66.2 C percent and the “Phytotoxicity at 3 days: percent leaf area affected” value (Xanthi-nc tobacco [2]; [11]) was 4.3 AB percent. For the same molecule, the “Phytotoxicity at 6 days: percent leaf area affected” value (Xanthi-nc tobacco [2]; [11]) was 77.5 D percent, the “Phytotoxicity at 3 days: percent leaf area affected” value (Xanthi-nc tobacco [2]; [12]) was 9.5 B percent and the “Phytotoxicity at 6 days: percent leaf area affected” value (Xanthi-nc tobacco [2]; [12]) was 82.5 DE percent. For the same molecule, the “Percent leaf area affected at 3 days” value ([3]; atrazine (Aatrex Nine-O) 100 ppm, alone or + NaSA 800 ppm) was 0 A Percent, the “Percent leaf area affected at 3 days” value ([3]; atrazine (Aatrex Nine-O) 500 ppm, alone or + NaSA 800 ppm) was 0 A Percent and the “Percent leaf area affected at 3 days” value ([3]; atrazine (Aatrex Nine-O) 1000 ppm, alone or + NaSA 800 ppm) was 0 A Percent. The “Phytotoxicity at 3 days: percent leaf area affected” value (Xanthi-nc tobacco [4]; 15 C.) was 0 A percent, the “Phytotoxicity at 3 days: percent leaf area affected” value (Xanthi-nc tobacco [4]; 25 C.) was 0 A percent and the “Phytotoxicity at 3 days: percent leaf area affected” value (Xanthi-nc tobacco [4]; 35 C.) was 11.0 AB percent. For the same molecule, the “Phytotoxicity at 5 days: percent leaf area affected” value (Xanthi-nc tobacco [4]; 15 C.) was 0 A percent, the “Phytotoxicity at 5 days: percent leaf area affected” value (Xanthi-nc tobacco [4]; 25 C.) was 0.6 A percent and the “Phytotoxicity at 5 days: percent leaf area affected” value (Xanthi-nc tobacco [4]; 35 C.) was 73.4 C percent. The “Phytotoxicity at 7 days: percent leaf area affected” value (Xanthi-nc tobacco [4]; 15 C.) was 5.9 B percent, the “Phytotoxicity at 7 days: percent leaf area affected” value (Xanthi-nc tobacco [4]; 25 C.) was 25 C percent and the “Phytotoxicity at 7 days: percent leaf area affected” value (Xanthi-nc tobacco [4]; 35 C.) was 97.8 C percent. The “Phytotoxicity at 10 days: percent leaf area affected” value (Xanthi-nc tobacco [4]; 15 C.) was 39.1 B percent, the “Phytotoxicity at 10 days: percent leaf area affected” value (Xanthi-nc tobacco [4]; 25 C.) was 84.4 B percent and the “Phytotoxicity at 10 days: percent leaf area affected” value (Xanthi-nc tobacco [4]; 35 C.) was 100 C percent.
For `O=C([O-])c1ccccc1O.[Na+]` [NaSA, sodium salicylate], the “Effect of salicylate on Aatrex Nine-O herbicidal activity (in words)” value (velvetleaf; velvetleaf) was “potentiates Aatrex Nine-O®”, the “Effect of added salicylate on atrazine herbicidal activity (in words)” value (“Effect of added salicylate” for short) (Xanthi-nc tobacco [1]; darkness) was “conferred some activity in darkness” and the “Effect of added salicylate” value (Xanthi-nc tobacco [1]; low light) was “potentiated atrazine herbicidal activity under low light”. For the same molecule, the “Effect of salicylate on Basagran (bentazon) herbicidal activity (in words)” value (Xanthi-nc tobacco [2]; tobacco) was “potentiates Basagran®”, the “Effect of added salicylate” value (Xanthi-nc tobacco [2]; tobacco, apparent 3 days after application, persisted through 6 days) was “increased atrazine herbicidal activity” and the “Percent leaf area affected at 3 days” value ([3]; NaSA 800 ppm alone) was 0 A Percent. The “Effect of salicylate on atrazine herbicidal activity (in words)” value (Xanthi-nc tobacco [4]; range of temperatures (15-35 C)) was “potentiated atrazine herbicidal activity under a range of temperatures”.
